Residue numbers refer to the chain shown, from its start.

Consider one compound from article PMC10804683, “Identification of the pyridoxal 5′‐phosphate allosteric site in human pyridox(am)ine 5′‐phosphate oxidase” (Protein Science : A Publication of the Protein Society, 2024).

For one experiment, the target named is T1, human PNPO F48A variant (Homo sapiens, UniProt Q9NVS9, F48A).
T1 sequence (Q9NVS9 1-261 F48A): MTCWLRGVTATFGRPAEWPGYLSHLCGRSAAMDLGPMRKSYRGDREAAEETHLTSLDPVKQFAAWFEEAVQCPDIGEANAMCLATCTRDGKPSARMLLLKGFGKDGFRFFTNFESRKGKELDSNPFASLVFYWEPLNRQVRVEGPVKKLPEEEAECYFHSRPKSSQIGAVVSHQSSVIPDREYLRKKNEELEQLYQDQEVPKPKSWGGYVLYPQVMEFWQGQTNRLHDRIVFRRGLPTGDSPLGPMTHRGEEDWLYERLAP
The experiment is described as follows: PMP oxidation kinetics, F48A variant. The settings on record: 50 mM Tris–HCl pH 7.6, 37°C, 2 μM enzyme.

The target of another experiment is T2, human PNPO wild type (Homo sapiens, UniProt Q9NVS9).
T2 sequence (Q9NVS9 1-261): T1 sequence (Q9NVS9 1-261 F48A) with A48F

Regarding `Cc1ncc(COP(=O)(O)O)c(CN)c1O` [PMP, pyridoxamine 5′‐phosphate], the “PMP oxidation kCAT” value at human PNPO F48A variant stood at 0.1785 ± 0.003 s⁻¹; on human PNPO wild type (50 mM Tris–HCl pH 7.6, 37°C, 2 μM enzyme), 0.135 ± 0.00283 s⁻¹. On human PNPO wild type (Tris–HCl pH 7.6, 37°C), the “KM for PMP relative to KM for PNP” value stood at 25 fold.
